The text below walks through data of US20040110206A1, “Waveform modulated light emitting diode (LED) light source for use in a method of and apparatus for screening to identify drug candidates” (Bio TechPlex Corporation, priority 2002, published 2004).

This experiment concerns normal human bronchial epithelial cells (NHBE). Put plainly: Cumulative dose kinetic responses of intracellular Ca++, Cl- and cell membrane potential (simultaneous Fluo-3, di-MEQ and RH421 fluorescence photon counting). The format is cell-based. As to the method:
Normal human bronchial/tracheal epithelial cells (NHBE, Clonetics) were cultured in T-25 cm^2 flasks at 37° C., 5% CO2 using Bronchial/Tracheal Epithelial Cell Growth Medium containing Retinoic Acid (BEGM, w/RA, Clonetics). When the NHBE cells in the T-25 flasks reached 60%-80% confluency, the cells were passaged using a seeding density of 3500 cells/cm^2. A portion of the cells was passaged in T-25 flasks again while the remaining cells were seeded on UV-exposed Vitrogen (pH balanced 1:1 BEGM to Vitrogen) coated 4-well cover glass chambers (LabTek II). NHBE cells normally attached to the collagen-coated cover glass chamber within 24 hrs. Prior to these cells reaching 60% confluency, they were used for all the experiments described below. Cells used in all the experiments were either 2nd or 3rd passage cells maintained in Bronchial/Tracheal Epithelial Cell Growth Medium with Retinoic Acid (BEGM, w/RA, Clonetics).
The following procedures for loading the cells with fluorophore were employed. Balanced Hank's (BH) solution without phenol red was used as the medium for all the fluorophore preparations and cell washings unless stated otherwise. Fluo-3 (a Ca^++ indicator), di-MEQ (a Cl^− indicator) and RH421 (a cell membrane potential indicator) were loaded into cells sequentially at room temperature. Cells were first incubated with 8 μM Fluo-3 solution for 60 minutes, followed by incubating with 50 μM di-MEQ for 5 minutes and then finally with 10 μM RH421 for 5 minutes. Extraneous dyes were washed with BH solution between each fluorophore loading procedure. The cells were allowed to stabilize in BEGM for a minimum of 15 minutes at room temperature prior to the beginning of each experiment.
Experiments were performed at room temperature. All tested agents were prepared in Balanced Hank's Solution. One of the wells of the cover glass chamber was placed on the stage of the inverted microscope and the cells loaded with the fluorophores were visually focused with the violet, green and orange emitted light from the cells approximately in the same focal plane. At a sampling frequency of 100 Hz, cells with the following photon counts were chosen for the study: 20 to 50 counts per channel (cpc) for Ca^++ fluorescence, 70 to 200 cpc for Cl^− fluorescence, and 20 to 50 cpc for cell membrane potential fluorescence. After establishing a 2 minute baseline, increasing doses of the agent of interest were added topically to the wells 2 minutes apart. At the end of each experiment, a toxic dose of the agent of interest was added to the sample to either shrink or swell the cells beyond their normal cell volume regulatory range. This caused the fluorescence signals of each of these fluorophores to reach either maximum or minimum values. […] Background fluorescence was recorded using a cell free area of the same well. If the signal to background ratio was not higher than a factor of 10, the experiments were also discarded.
The kinetic responses were measured as photon counts acquired in 10 ms intervals over>800 seconds. […] The correlation of these events and their kinetics, observations that can only be made with the present invention, provides unique insights into the mechanism by which Glibenclamide affects the cells.
UTP is a ligand to the p2Y receptor. The kinetic responses were measured as photon counts acquired in 10 ms intervals over >800 seconds.
Hyperpolarization of the cell membrane can also be induced via different cellular mechanisms such as by decreasing intracellular potassium. […] The kinetic responses were measured as photon counts acquired in 10 ms intervals over >900 seconds. It should be noted that the relative potencies of these agents in terms of the mechanisms for eliciting the temporal responses, the duration of the agent actions and the magnitude of hyperpolarization of the cell membrane can be compared and monitored for the first time. […]

Consider `O=c1ccn([C@@H]2O[C@H](COP(=O)(O)OP(=O)(O)OP(=O)(O)O)[C@@H](O)[C@H]2O)c(=O)[nH]1` [UTP, uridine triphosphate], for which, for the setting “0.1 mM and 1 mM”, the “intracellular Cl- response” value is “essentially no changes” and the membrane potential response result is “essentially no changes”. The “intracellular Ca++ response” value (0.1 mM and 1 mM, increase followed by a measurable rate of decline) is listed as “rapid increase”.
`COc1ccc(Cl)cc1C(=O)NCCc1ccc(S(=O)(=O)NC(=O)NC2CCCCC2)cc1` [Glibenclamide]: where the note is “500 μM”, the “intracellular Ca++ response” value is reported as “rapid increase”, the “intracellular Cl- response” value was “simultaneous drop” and the membrane potential response entry is “simultaneous increase”. Further, the “cell membrane potential response” value (Glibenclamide 25 μM to 500 μM cumulative) is “hyperpolarized the cell membrane”. Besides, the “[Cl-]i response” value (Glibenclamide 25 μM to 500 μM cumulative, MEQ fluorescence inversely proportional to [Cl-]i) was “increased”. Further, for the setting “concentrations below 500 μM”, the “intracellular Ca++ response” value is “little affected”, the “intracellular Cl- response” value is listed as “declines as Glibenclamide concentration increases” and the membrane potential response entry is “little affected”.
